Where two headings read alike, the source gives them in different places.
How the values were obtained:
[1] = target: T1, fibrinogen receptor (glycoprotein IIb/IIIa) (Homo sapiens, UniProt P05106+P08514); assay: Inhibition of binding of 125I-fibrinogen to its receptor on intact, gel-filtered human platelets; conditions: inhibition of 125I-fibrinogen binding, stimulation with ADP (10 μM), read-out: Ki (μM), ADP-stimulated
T1 construct: endogenous in cells
Procedure: (§1) The compounds are tested in particular for their inhibitory action in blood platelet aggregation and the adhesion of fibrinogen to blood platelets. Gel-filtered blood platelets from human donor blood are used, which are activated with ADP or thrombin.
The inhibition of the binding of fibrinogen to its receptor (glycoprotein IIb/IIIa) by the compounds according to the invention is tested on intact, gel-filtered human platelets. The Ki value of the inhibition of binding of ^125 I-fibrinogen after stimulation with ADP (10 μM) is given. (References: J. S. Bennett and G. Vilaire, J. Clin. Invest. 64 (1979), 1393-1401; E. Kornecki et al., J. Biol. Chem. 256 (1981), 5695-5701; G. A. Marguerie et al., J. Biol. Chem. 254 (1979), 5357-5363; G. A. Marguerie et al., J. Biol. Chem. 255 (1980), 154-161).

[2] = system: gel-filtered human platelets; assay: Inhibition of aggregation of gel-filtered human platelets after ADP or thrombin stimulation; format: cell-based
Procedure: as §1
As a functional test, the inhibition of aggregation of gel-filtered human platelets by the compounds according to the invention is measured after ADP or thrombin stimulation. The IC50 value of the inhibition is given.

T1 sequence (P08514 32-887 limits assumed): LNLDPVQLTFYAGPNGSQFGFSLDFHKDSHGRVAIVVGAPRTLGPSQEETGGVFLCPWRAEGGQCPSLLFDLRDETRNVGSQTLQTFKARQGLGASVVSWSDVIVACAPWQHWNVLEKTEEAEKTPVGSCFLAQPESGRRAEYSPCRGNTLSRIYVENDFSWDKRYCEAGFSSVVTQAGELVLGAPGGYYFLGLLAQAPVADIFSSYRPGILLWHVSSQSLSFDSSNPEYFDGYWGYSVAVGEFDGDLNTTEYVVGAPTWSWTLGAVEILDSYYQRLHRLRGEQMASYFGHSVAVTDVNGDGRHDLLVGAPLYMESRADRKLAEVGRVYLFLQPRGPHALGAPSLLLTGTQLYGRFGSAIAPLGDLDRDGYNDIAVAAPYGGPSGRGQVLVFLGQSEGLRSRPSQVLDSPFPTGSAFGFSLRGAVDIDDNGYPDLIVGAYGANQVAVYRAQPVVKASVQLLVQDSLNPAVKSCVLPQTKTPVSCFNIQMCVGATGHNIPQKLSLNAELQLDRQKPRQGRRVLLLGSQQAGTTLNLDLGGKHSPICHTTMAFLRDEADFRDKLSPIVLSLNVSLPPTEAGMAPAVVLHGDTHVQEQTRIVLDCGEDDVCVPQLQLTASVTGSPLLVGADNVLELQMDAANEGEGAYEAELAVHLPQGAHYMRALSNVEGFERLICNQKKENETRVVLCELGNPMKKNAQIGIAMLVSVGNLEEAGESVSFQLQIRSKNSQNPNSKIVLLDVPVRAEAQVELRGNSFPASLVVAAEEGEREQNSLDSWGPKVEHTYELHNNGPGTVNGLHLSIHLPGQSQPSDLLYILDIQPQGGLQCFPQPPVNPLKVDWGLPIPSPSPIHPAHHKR
T1 sequence (P08514 891-1039 partner limits assumed): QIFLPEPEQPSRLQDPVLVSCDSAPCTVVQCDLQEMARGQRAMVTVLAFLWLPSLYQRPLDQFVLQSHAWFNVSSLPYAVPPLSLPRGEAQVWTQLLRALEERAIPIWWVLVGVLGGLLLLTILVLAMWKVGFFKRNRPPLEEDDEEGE
T1 sequence (P05106 27-788): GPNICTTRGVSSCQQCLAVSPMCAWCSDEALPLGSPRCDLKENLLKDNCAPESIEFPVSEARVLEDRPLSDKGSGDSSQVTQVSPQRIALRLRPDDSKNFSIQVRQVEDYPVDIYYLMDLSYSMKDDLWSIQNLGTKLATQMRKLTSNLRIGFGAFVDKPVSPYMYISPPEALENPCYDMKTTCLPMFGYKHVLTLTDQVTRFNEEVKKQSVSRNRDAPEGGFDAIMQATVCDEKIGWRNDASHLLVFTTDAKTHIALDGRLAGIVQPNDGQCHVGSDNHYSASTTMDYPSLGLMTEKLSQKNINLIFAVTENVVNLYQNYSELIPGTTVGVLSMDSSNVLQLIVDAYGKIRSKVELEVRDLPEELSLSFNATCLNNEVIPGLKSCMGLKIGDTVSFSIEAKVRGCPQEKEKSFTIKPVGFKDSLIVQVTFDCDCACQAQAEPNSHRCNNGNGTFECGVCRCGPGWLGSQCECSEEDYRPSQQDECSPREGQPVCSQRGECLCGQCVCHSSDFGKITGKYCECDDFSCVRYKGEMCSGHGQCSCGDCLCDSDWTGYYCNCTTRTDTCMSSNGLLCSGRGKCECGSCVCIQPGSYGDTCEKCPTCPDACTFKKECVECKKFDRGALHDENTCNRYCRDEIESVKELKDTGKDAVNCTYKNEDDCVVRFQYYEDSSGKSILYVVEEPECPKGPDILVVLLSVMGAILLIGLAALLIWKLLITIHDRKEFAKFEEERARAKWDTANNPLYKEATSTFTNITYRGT

## N=C(N)Nc1ccc(C2NC(=O)N(CC(=O)N[C@@H](CC(=O)O)C(=O)N[C@H](C(=O)O)c3ccccc3)C2=O)cc1 (stereo partly drawn) [Example 1, (5-(4-Guanidinophenyl)-2,4-dioxoimidazolin-3-yl)acetyl-L-aspartyl-L-phenylglycine]
[1]
  Ki: 0.03 µM
[2]; inhibition of aggregation of gel-filtered human platelets, ADP stimulation, read-out: ADP-stimulated IC50
  IC50: 200 nM
[2]; inhibition of aggregation of gel-filtered human platelets, thrombin stimulation; read-out: Thrombin-stimulated IC50 9 μM)
  IC50: 70 nM

## N=C(N)Nc1cccc(C2NC(=O)N(CC(=O)N[C@@H](CC(=O)O)C(=O)N[C@H](C(=O)O)c3ccccc3)C2=O)c1 (stereo partly drawn) [Example 2]
[1]
  Ki: 2 µM
[2]; Platelet, inhibition of aggregation of gel-filtered human platelets, ADP stimulation, read-out: ADP-stimulated IC50
  IC50: 6000 nM
[2]; Platelet; inhibition of aggregation of gel-filtered human platelets, thrombin stimulation; read-out: Thrombin-stimulated IC50 9 μM)
  IC50: 3000 nM

From patent US5424293A (Cassella AG, priority 1992, dated 1995)
